# In patent US20260116910A1, “POLYCYCLIC COMPOUNDS AND METHODS THEREOF” (HEPAITECH (BEIJING) BIOPHARMA TECHNOLOGY CO., LTD., priority 2021, published 2026):
# Like-named read-outs stand apart in the source and are kept apart here.
# How the values were obtained:
# Type in all cases: cell-based
# MRGPRX4 = MRGPRX4 (Homo sapiens, UniProt Q96LA9); assay: MRGPRX4 activation, Fluo-8 Ca2+ FLIPR assay in HEK293T cells stably expressing MRGPRX4; conditions: for EC50: MRGPRX4 activation, Ca2+ fluorescence, no activation in tested range reported as III, read-out: Activity (EC50 μM)
# Method in brief: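 Response measured as dF/F0: 30 s baseline, then 150 s after compound addition on FLIPR Tetra, in HHBS after 40-60 min room-temperature loading with 2 μM Fluo-8 AM.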
# human TGR5 = biological target: T1, human TGR5 (Homo sapiens, UniProt Q8TDU6); assay: TGR5 agonist assessment, CRE-NanoLuc reporter in HEK293T cells
# T1 sequence (Q8TDU6 1-330): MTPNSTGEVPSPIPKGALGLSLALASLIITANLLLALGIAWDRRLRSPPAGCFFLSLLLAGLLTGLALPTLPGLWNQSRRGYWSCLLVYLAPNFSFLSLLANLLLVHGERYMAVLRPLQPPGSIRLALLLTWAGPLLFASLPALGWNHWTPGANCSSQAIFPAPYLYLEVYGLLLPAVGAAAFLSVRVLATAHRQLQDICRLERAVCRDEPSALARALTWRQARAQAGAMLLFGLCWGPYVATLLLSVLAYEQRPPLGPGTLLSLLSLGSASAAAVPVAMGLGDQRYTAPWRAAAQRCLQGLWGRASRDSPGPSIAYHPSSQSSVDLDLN
# Method: Cells were detached by centrifuging (1000 rpm, 3 min). The pellet was re-suspended in medium, and cell density was adjusted to about 1×10^6 cells/mL. […] Cells in the microplates were cultured overnight.
# Culture medium was replaced, and compounds were added to the wells. 0.01% DMSO (v/v) served as negative control. Plates were incubated at 37° C. in 5% CO2 for 24 hr.
# In the following day, a 10 μL aliquot of cell culture medium was removed from each well and combined with 40 μL culture medium plus […] assay buffer (containing 20 mM of the luciferase substrate coelenterazine). After 5 min incubation, luminescence was measured using an EnVision plate reader (PerkinElmer).
# In some embodiments, gradient diluted solutions of several concentrations were used to treat cells and corresponding responses were used to fit sigmoid function and to derive EC50 in Origin.
# human FXR (NR1H4) = biological target: T2, human FXR (NR1H4) (Homo sapiens, UniProt Q96RI1); assay: Human FXR (NR1H4) agonist assessment, FXRE-NanoLuc reporter in HEK293T cells; conditions: for EC50: read-out: EC50
# T2 sequence (Q96RI1 1-476 isoform Q96RI1-1): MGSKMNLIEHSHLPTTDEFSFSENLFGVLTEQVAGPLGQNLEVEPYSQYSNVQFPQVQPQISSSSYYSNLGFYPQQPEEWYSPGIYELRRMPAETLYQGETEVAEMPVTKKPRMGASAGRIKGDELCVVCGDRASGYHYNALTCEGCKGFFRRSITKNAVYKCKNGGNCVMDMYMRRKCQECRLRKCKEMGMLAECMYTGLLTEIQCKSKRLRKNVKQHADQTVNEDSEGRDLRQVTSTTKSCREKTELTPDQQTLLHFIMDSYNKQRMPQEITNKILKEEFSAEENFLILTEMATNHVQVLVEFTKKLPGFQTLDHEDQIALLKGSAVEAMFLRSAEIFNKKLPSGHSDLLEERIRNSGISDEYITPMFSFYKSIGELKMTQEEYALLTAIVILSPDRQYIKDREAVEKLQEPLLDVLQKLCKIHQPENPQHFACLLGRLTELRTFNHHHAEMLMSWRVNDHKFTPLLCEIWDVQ
# Method in brief: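 Read-out was NanoLuc luminescence in culture medium, measured 5 min after adding coelenterazine. Cells were HEK293T stably carrying human FXR and an FXRE reporter, exposed to compound for 24 hr at 37 °C. Vehicle was 0.01% DMSO. EC50 was obtained from sigmoid fits of gradient dilutions.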
# [1] = FXR activation, HEK293T FXRE-NanoLuc reporter, 24 hr
# MRGPRX4, sequence (Q96LA9 whole entry): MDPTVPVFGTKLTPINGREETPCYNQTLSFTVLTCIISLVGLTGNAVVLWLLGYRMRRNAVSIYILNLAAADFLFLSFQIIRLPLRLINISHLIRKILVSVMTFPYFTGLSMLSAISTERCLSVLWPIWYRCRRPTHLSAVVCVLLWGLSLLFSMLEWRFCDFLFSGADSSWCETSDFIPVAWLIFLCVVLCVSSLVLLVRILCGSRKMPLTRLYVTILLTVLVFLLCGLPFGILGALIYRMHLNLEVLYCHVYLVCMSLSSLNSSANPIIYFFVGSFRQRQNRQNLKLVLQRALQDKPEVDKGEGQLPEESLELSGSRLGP
Compound,"MRGPRX4 activation, Average (MRGPRX4; E3-6-2, 1st of 6 concentration columns (head not in rows shown))","MRGPRX4 activation, Average (MRGPRX4; E3-6-2, 3rd of 6 concentration columns (head not in rows shown))","MRGPRX4 activation, Average (MRGPRX4; E3-6-2, 6th of 6 concentration columns (head not in rows shown))","MRGPRX4 activation, Average (MRGPRX4; E3-6-2, concentration not given)",EC50 (MRGPRX4),EC50 (human TGR5),"Efficacy (maximum measured induction of NanoLuc, normalized to CDCA set as 100%) (human FXR (NR1H4); [1])",EC50 (human FXR (NR1H4); [1]),"MRGPRX4 activation, fluorescence change (dF/F0), Average (MRGPRX4; Conc. (Log[M]) −4)","MRGPRX4 activation, fluorescence change (dF/F0), Average (MRGPRX4; Conc. (Log[M]) −4.5)","MRGPRX4 activation, fluorescence change (dF/F0), Average (MRGPRX4; Conc. (Log[M]) −5)","MRGPRX4 activation, fluorescence change (dF/F0), Average (MRGPRX4; Conc. (Log[M]) −5.5)","MRGPRX4 activation, fluorescence change (dF/F0), Average (MRGPRX4; Conc. (Log[M]) −6)","MRGPRX4 activation, fluorescence change (dF/F0), Average (MRGPRX4; Conc. (Log[M]) −7)","MRGPRX4 activation, fluorescence change (dF/F0), Average (MRGPRX4; Conc. (Log[M]) −8)","MRGPRX4 activation, fluorescence change (dF/F0), Average (MRGPRX4; Conc. (Log[M]) −9)","Efficacy (maximum measured induction of NanoLuc, normalized to CDCA set as 100%) (human FXR (NR1H4))"
CC[C@H]1[C@@H](O)[C@@H]2[C@H](CC[C@]3(C)[C@@H]([C@H](C)CCNC(=O)NS(=O)(=O)N(C)C)CC[C@@H]23)[C@@]2(C)CCCC[C@@H]12 [5-15],0.087,0.013,0.010,0.010,> 100 µM,0.013 µM,C (100%<efficacy <=300%),< 1 µM,–,–,–,–,–,–,–,–,–
C[C@H](CCCO)[C@H]1CC[C@H]2[C@@H]3CC[C@@H]4CCCC[C@]4(C)[C@H]3CC[C@]12C [compound 77],–,–,–,–,> 100 µM,–,–,1 to 10 µM,0.067,0.014,−0.029,−0.023,−0.017,−0.009,−0.014,−0.012,B (key: A: efficacy >400%; B: 300%<efficacy <=400%; C: 100%<efficacy <=300%; D: efficacy <=100%)
C[C@H](CCCCC(=O)O)[C@H]1CC[C@H]2[C@@H]3CC[C@@H]4C[C@H](O)CC[C@]4(C)[C@H]3CC[C@]12C [compound 84],–,–,–,–,< 50 µM,–,B (300%<efficacy <=400%),1 to 10 µM,0.287,0.065,0.021,−0.001,0.009,−0.014,0.002,−0.014,–
